The supplement of paper PMC11451515

Tested on: P12-Ichikawa
Assay: cell viability relative to DMSO control; higher = less cytotoxic
Conditions: 48 h
Procedure, shortened: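 Viability is expressed as a percentage of DMSO wells within each plate, and cell-free wells serve as background. Seeding densities in the 1536-well plates (5 μl) were 500 cells/well for NOMO1 or SEM leukemia cells and 1000 cells/well for P12-Ichikawa. Each line was adapted for at least four passages in each medium. Library compounds in DMSO were pin-dosed at 47 μM to 0.79 nM (11 points, threefold), and CellTiter-Glo One luminescence was read after 48 h at 37°C.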

[1] = HPLM + 10% dialyzed FBS, 0.000781 µM
[2] = HPLM + 10% dialyzed FBS, 0.00234 µM
[3] = HPLM + 10% dialyzed FBS, 0.00702 µM
[4] = HPLM + 10% dialyzed FBS, 0.0211 µM
[5] = HPLM + 10% dialyzed FBS, 0.0632 µM
[6] = HPLM + 10% dialyzed FBS, 0.19 µM
[7] = HPLM + 10% dialyzed FBS, 0.569 µM
[8] = HPLM + 10% dialyzed FBS, 1.71 µM
[9] = HPLM + 10% dialyzed FBS, 5.12 µM
[10] = HPLM + 10% dialyzed FBS, 15.4 µM
[11] = HPLM + 10% dialyzed FBS, 46.1 µM
[12] = RPMI 5 mM glucose + 10% FBS, 0.000781 µM
[13] = RPMI 5 mM glucose + 10% FBS, 0.00234 µM
[14] = RPMI 5 mM glucose + 10% FBS, 0.00702 µM
[15] = RPMI 5 mM glucose + 10% FBS, 0.0211 µM
[16] = RPMI 5 mM glucose + 10% FBS, 0.0632 µM
[17] = RPMI 5 mM glucose + 10% FBS, 0.19 µM
[18] = RPMI 5 mM glucose + 10% FBS, 0.569 µM
[19] = RPMI 5 mM glucose + 10% FBS, 1.71 µM
[20] = RPMI 5 mM glucose + 10% FBS, 5.12 µM
[21] = RPMI 5 mM glucose + 10% FBS, 15.4 µM
[22] = RPMI 5 mM glucose + 10% FBS, 46.1 µM
[23] = RPMI 5 mM glucose + 10% dialyzed FBS, 0.000781 µM
[24] = RPMI 5 mM glucose + 10% dialyzed FBS, 0.00234 µM
[25] = RPMI 5 mM glucose + 10% dialyzed FBS, 0.00702 µM
[26] = RPMI 5 mM glucose + 10% dialyzed FBS, 0.0211 µM
[27] = RPMI 5 mM glucose + 10% dialyzed FBS, 0.0632 µM
[28] = RPMI 5 mM glucose + 10% dialyzed FBS, 0.19 µM
[29] = RPMI 5 mM glucose + 10% dialyzed FBS, 0.569 µM
[30] = RPMI 5 mM glucose + 10% dialyzed FBS, 1.71 µM
[31] = RPMI 5 mM glucose + 10% dialyzed FBS, 5.12 µM
[32] = RPMI 5 mM glucose + 10% dialyzed FBS, 15.4 µM
[33] = RPMI 5 mM glucose + 10% dialyzed FBS, 46.1 µM

Compound | cell viability [1] [%] | cell viability [2] [%] | cell viability [3] [%] | cell viability [4] [%] | cell viability [5] [%] | cell viability [6] [%] | cell viability [7] [%] | cell viability [8] [%] | cell viability [9] [%] | cell viability [10] [%] | cell viability [11] [%] | cell viability [12] [%] | cell viability [13] [%] | cell viability [14] [%] | cell viability [15] [%] | cell viability [16] [%] | cell viability [17] [%] | cell viability [18] [%] | cell viability [19] [%] | cell viability [20] [%] | cell viability [21] [%] | cell viability [22] [%] | cell viability [23] [%] | cell viability [24] [%] | cell viability [25] [%] | cell viability [26] [%] | cell viability [27] [%] | cell viability [28] [%] | cell viability [29] [%] | cell viability [30] [%] | cell viability [31] [%] | cell viability [32] [%] | cell viability [33] [%]
NC1=NC(=O)N2CC12 (stereo not given) | 91 | 103 | 101 | 107 | 103 | 97 | 103 | 99.7 | 83.1 | 3.88 | 2.17 | 92.5 | 91.2 | 96.2 | 102 | 106 | 97.4 | 104 | 67.8 | 59 | 2.82 | 0.916 | 85.3 | 94.6 | 92.1 | 90.9 | 87.4 | 88.5 | 95.6 | 73.5 | 59.9 | 6.25 | 2.73
C[C@@H]1CC[C@@]2(CC[C@]3(C)\C(=C/C[C@@H]4[C@@]5(C)CC[C@H](O)C(C)(C)[C@@H]5CC[C@@]34C)[C@@H]2[C@H]1C)C(O)=O | 112 | 117 | 113 | 109 | 120 | 117 | 109 | 116 | 115 | 125 | 113 | 117 | 112 | 104 | 113 | 118 | 116 | 116 | 116 | 116 | 124 | 115 | 99.7 | 106 | 106 | 112 | 123 | 114 | 115 | 110 | 119 | 109 | 113
CN(CCOc1ccc(CC2SC(=O)NC2=O)cc1)c1ccccn1 (stereo not given) | 116 | 124 | 113 | 121 | 116 | 115 | 120 | 114 | 114 | 111 | 103 | 123 | 130 | 122 | 116 | 120 | 125 | 129 | 125 | 115 | 113 | 106 | 123 | 123 | 127 | 119 | 116 | 123 | 127 | 118 | 113 | 112 | 97.4
C[C@]12CCC3c4ccc(O)cc4CCC3C1CCC2=O (stereo not given in full) | 92 | 95.3 | 101 | 98.9 | 102 | 97.9 | 84.6 | 94 | 90.2 | 73.7 | 83.9 | 88.2 | 95.4 | 96.8 | 103 | 102 | 100 | 98.8 | 95.5 | 87.4 | 72.6 | 83.9 | 86.9 | 93.6 | 86.2 | 87 | 87.7 | 88.4 | 97.9 | 80.7 | 72.8 | 54.4 | 66.4
CCC(C)CCCCC(=O)N[C@@H](CCN)C(=O)NC(C(=O)N[C@H](CCN)C(=O)N[C@@H]1CCNC(=O)C([C@@H](C)O)NC(=O)[C@@H](CCN)NC(=O)[C@@H](CCN)NC(=O)[C@@H](CC(C)C)NC(=O)[C@H](Cc2ccccc2)NC(=O)[C@H](CCN)NC1=O)[C@@H](C)O (stereo not given in full) | 114 | 118 | 117 | 117 | 122 | 128 | 129 | 124 | 129 | 128 | 126 | 114 | 113 | 115 | 120 | 135 | 135 | 134 | 131 | 132 | 132 | 123 | 111 | 110 | 112 | 115 | 117 | 117 | 120 | 134 | 135 | 123 | 124
O=C(O)c1cc(O)c2c(c1)C(=O)c1cccc(O)c1C2=O | 113 | 117 | 123 | 117 | 107 | 117 | 112 | 110 | 107 | 106 | 99.9 | 110 | 120 | 113 | 119 | 119 | 113 | 109 | 120 | 98 | 113 | 102 | 118 | 119 | 113 | 114 | 112 | 112 | 110 | 108 | 99.1 | 108 | 99.7
CN(C)c1nc(Cc2ccc(NC(=O)c3ccc(C(F)(F)F)cc3)cc2)nc(N(C)C)c1CC(=O)O | 106 | 100 | 107 | 104 | 105 | 103 | 99.5 | 102 | 103 | 98.2 | 90.3 | 106 | 109 | 99.5 | 105 | 109 | 103 | 103 | 108 | 100 | 103 | 98.5 | 95.7 | 96.7 | 99.6 | 105 | 94.7 | 96.9 | 99.3 | 96.8 | 95.1 | 93.8 | 85.2
O=C(O)c1ccc(O)c2ncc(N3CCOCC3)cc12 | 106 | 105 | 100 | 108 | 107 | 103 | 97.2 | 99.9 | 98.6 | 95.6 | 7.44 | 102 | 99.1 | 96.8 | 92.8 | 95.7 | 97.6 | 96.6 | 94.2 | 87.8 | 85.2 | 9.83 | 98.5 | 95.2 | 104 | 90.9 | 98 | 97.7 | 105 | 102 | 81.8 | 84.7 | 5.31
OC[C@H]1O[C@H](C[C@@H]1O)N2/C=C(C(=O)NC2=O)/C(F)(F)F | 120 | 116 | 119 | 110 | 117 | 98 | 75.9 | 52.9 | 17.4 | 12.5 | 6.49 | 126 | 113 | 118 | 114 | 123 | 121 | 112 | 107 | 38.6 | 15.7 | 8.41 | 107 | 114 | 114 | 113 | 105 | 107 | 89.6 | 93.3 | 23.1 | 16.8 | 11.1
C[C@]12CC[C@H]3[C@@H](CC(=C)\C4=C\C(=O)\C=C/[C@]34C)[C@@H]1CCC2=O | 105 | 107 | 105 | 107 | 107 | 101 | 104 | 103 | 98 | 99 | 79.9 | 96.3 | 110 | 105 | 102 | 108 | 96.2 | 102 | 107 | 101 | 98 | 63.7 | 96.7 | 107 | 99.6 | 101 | 99.1 | 95.2 | 88.5 | 103 | 102 | 94.5 | 57.4
CCCN[C@H]1CCc2nc(N)sc2C1 | 92.8 | 104 | 98 | 98.4 | 101 | 107 | 101 | 110 | 103 | 104 | 107 | 94.3 | 90.5 | 107 | 104 | 107 | 110 | 107 | 111 | 114 | 114 | 120 | 85.6 | 95.1 | 90.4 | 93.6 | 96 | 101 | 96.1 | 93.6 | 94.9 | 96.9 | 106
Cc1ccc([C@@H]2O[C@H](CO)[C@@H](O)[C@H](O)[C@H]2O)cc1Cc1ccc(-c2ccc(F)cc2)s1 | 119 | 112 | 119 | 116 | 126 | 127 | 126 | 127 | 127 | 125 | 90.3 | 118 | 121 | 135 | 130 | 129 | 132 | 128 | 126 | 131 | 125 | 77.7 | 114 | 117 | 118 | 121 | 132 | 132 | 134 | 131 | 118 | 120 | 69.9
CCn1nnc2c(N3CCOCC3)nc(-c3ccc(NC(=O)Nc4ccc(C(=O)N5CCN(C)CC5)cc4)cc3)nc21 | 103 | 109 | 99.8 | 92.6 | 91.6 | 76.3 | 101 | 71 | 76 | 70.2 | 68.9 | 97.5 | 98.4 | 99.4 | 83.6 | 72.3 | 55.3 | 94.3 | 55.2 | 54.9 | 56.9 | 59.4 | 93.7 | 106 | 88.5 | 70.6 | 69.9 | 59.6 | 103 | 56.9 | 58.8 | 54.4 | 50.1
CCN(CC)CCNC(=O)c1c(C)[nH]c(/C=C2\C(=O)Nc3ccc(F)cc32)c1C | 106 | 102 | 106 | 103 | 104 | 36.8 | 21.5 | 6.34 | 9.77 | 3.45 | 2.39 | 106 | 105 | 114 | 103 | 118 | 58.8 | 34.1 | 12.6 | 14.6 | 4.54 | 2.44 | 114 | 113 | 109 | 112 | 113 | 51.3 | 31 | 12.2 | 14.3 | 4.09 | 2.75
O=C(/C=C/c1ccc(/C=C/C(=O)Nc2ccc(C3=NCCN3)cc2)cc1)Nc1ccc(C2=NCCN2)cc1 | 98.7 | 102 | 111 | 115 | 117 | 108 | 117 | 115 | 119 | 115 | 108 | 101 | 104 | 111 | 111 | 109 | 119 | 109 | 106 | 112 | 107 | 110 | 91.3 | 109 | 107 | 96.7 | 104 | 115 | 105 | 112 | 109 | 112 | 100
